This note sets out measurements from patent US10450270B2, “Glyoxamide substituted pyrrolamide derivatives and the use thereof as medicaments for the treatment of hepatitis B” (Janssen Sciences Ireland UC, priority 2013, dated 2019).

Broadly, the EC50 is the concentration needed to bring the measured effect to its halfway point. In general, melting point refers to the temperature, or range, at which the solid turns liquid. Broadly, the CC50 is the concentration that lowers cell viability or growth by half.

Where only a bound is given, the exact number is not on record here.

Data set [1] relates to HBV. Put plainly: Anti-HBV activity, HepG2.117 inducible HBV producing cell line (Tet-off), intracellular HBV DNA by realtime PCR. Type of data set: cell-based. The conditions noted are these: Hepatitis B virus.
Data set [2] deals with HBV. Put plainly: Anti-HBV activity, HepG2.2.15 stable transfected cell line, HBV DNA from secreted virions by realtime PCR. It is filed as cell-based. The conditions noted are these: Hepatitis B virus.
Data set [3] can be described thus: Cytotoxicity in HepG2 cells, Resazurin viability assay. The conditions noted are these: human, HepG2 cells.
Where [4] appears, read: HepG2.117, 72 h, read-out: HepG2 117 EC50 (μM).
Setting [5] is: HepG2.2.15, 144 h, read-out: HepG 2.2.15 EC50 (μM).
Setting [6] is: 72 h, HepG2.117 cells, 3 days of treatment, intracellular HBV DNA, read-out: HepG2 117 EC50.
Setting [7] is: 144 h, HepG2.2.15 cells, 6 days of treatment, HBV DNA from secreted virions, read-out: HepG 2.2.15 EC50.

For the molecule `Cc1cc(NC(=O)c2cc(C(=O)C(=O)N[C@H]3CCOC3)cn2C)ccc1F` [Compound 6, (S)—N-(4-fluoro-3-methylphenyl)-1-methyl-4-(2-oxo-2-(tetrahydrofuran-3-ylamino)acetyl)-1H-pyrrole-2-carboxamide], the melting point came to 155.7 °C. Further, in data set [1] (setting [4]), the EC50 came to 0.19 µM. In addition, in data set [2] (setting [5]), the EC50 was determined as 0.047 µM. Further, in data set [3], the CC50 at 4 days is more than 25000 nM.

As for `Cn1cc(C(=O)C(=O)NC(C)(C)C)cc1C(=O)Nc1ccc(F)c(F)c1` [Compound 10, 4-(2-(tert-butylamino)-2-oxoacetyl)-N-(3,4-difluorophenyl)-1-methyl-1H-pyrrole-2-carboxamide], the melting point was 170.7 °C. In data set [1] (setting [6]), the EC50 was determined as 0.042 µM. In addition, the EC50 in data set [2] (setting [7]) stood at 0.072 µM. The molecule further gave a CC50 at 4 days in data set [3] of more than 25000 nM.

`Cn1cc(C(=O)C(=O)NC2(C)COC2)cc1C(=O)Nc1ccc(F)c(F)c1` [Compound 11, N-(3,4-difluorophenyl)-1-methyl-4-(2-(3-methyloxetan-3-ylamino)-2-oxoacetyl)-1H-pyrrole-2-carboxamide] came in with a melting point of 180.7 °C. Moreover, the EC50 in data set [1] (setting [6]) is 0.096 µM. Also, the concentration giving a half-maximal response (EC50) in data set [2] (setting [7]) came out at 0.05 µM. In addition, the CC50 at 4 days in data set [3] is more than 25000 nM.

Turning to `CC[C@@H](C)NC(=O)C(=O)c1cc(C(=O)Nc2ccc(F)c(C)c2)n(C)c1` [Compound 1, (R)-4-(2-(sec-butylamino)-2-oxoacetyl)-N-(4-fluoro-3-methylphenyl)-1-methyl-1H-pyrrole-2-carboxamide], the melting point was determined as 136.5 °C. In addition, in data set [1] (setting [6]), the EC50 amounted to 0.1 µM. Further, in data set [2] (setting [7]), the EC50 turned out to be 0.014 µM. This molecule had a CC50 at 4 days in data set [3] of more than 25000 nM.

`Cc1cc(NC(=O)c2cc(C(=O)C(=O)NC3(C)COC3)cn2C)ccc1F` [Compound 4, N-(4-fluoro-3-methylphenyl)-1-methyl-4-(2-(3-methyloxetan-3-ylamino)-2-oxoacetyl)-1H-pyrrole-2-carboxamide] had a melting point of 145.1 °C. In addition, the concentration giving a half-maximal response (EC50) in data set [1] (setting [4]) was 0.015 µM. The EC50 in data set [2] (setting [5]) came out at 0.013 µM. In addition, the CC50 at 4 days in data set [3] was more than 25000 nM.

`COC(=O)C(C)(C)NC(=O)C(=O)c1cc(C(=O)Nc2ccc(F)c(C)c2)n(C)c1` [Compound 7, methyl 2-(2-(5-(4-fluoro-3-methylphenylcarbamoyl)-1-methyl-1H-pyrrol-3-yl)-2-oxoacetamido)-2-methylpropanoate] came in with a melting point of 161 °C. For the same molecule, the EC50 in data set [1] (setting [4]) is 0.058 µM. Besides, the EC50 in data set [2] (setting [5]) came out at 0.21 µM. In data set [3], this molecule had a CC50 at 4 days of more than 25000 nM.
